Experimental data as given in patent publication US11878975B2, “Substituted indole compounds useful as TLR inhibitors” (BRISTOL-MYERS SQUIBB COMPANY, priority 2017, dated 2024).

Assays:
Type in all cases: cell-based
human TLR7 = molecular target: T1, human TLR7 (Homo sapiens, UniProt Q9NYK1); test: TLR7 inhibition reporter assay (HEK-Blue cells, SEAP reporter, gardiquimod stimulation); conditions: HEK-Blue cells overexpressing human TLR7, SEAP reporter, gardiquimod 7.5 μM
T1 construct: host or cells: HEK-Blue cells
T1 sequence (Q9NYK1 27-1049): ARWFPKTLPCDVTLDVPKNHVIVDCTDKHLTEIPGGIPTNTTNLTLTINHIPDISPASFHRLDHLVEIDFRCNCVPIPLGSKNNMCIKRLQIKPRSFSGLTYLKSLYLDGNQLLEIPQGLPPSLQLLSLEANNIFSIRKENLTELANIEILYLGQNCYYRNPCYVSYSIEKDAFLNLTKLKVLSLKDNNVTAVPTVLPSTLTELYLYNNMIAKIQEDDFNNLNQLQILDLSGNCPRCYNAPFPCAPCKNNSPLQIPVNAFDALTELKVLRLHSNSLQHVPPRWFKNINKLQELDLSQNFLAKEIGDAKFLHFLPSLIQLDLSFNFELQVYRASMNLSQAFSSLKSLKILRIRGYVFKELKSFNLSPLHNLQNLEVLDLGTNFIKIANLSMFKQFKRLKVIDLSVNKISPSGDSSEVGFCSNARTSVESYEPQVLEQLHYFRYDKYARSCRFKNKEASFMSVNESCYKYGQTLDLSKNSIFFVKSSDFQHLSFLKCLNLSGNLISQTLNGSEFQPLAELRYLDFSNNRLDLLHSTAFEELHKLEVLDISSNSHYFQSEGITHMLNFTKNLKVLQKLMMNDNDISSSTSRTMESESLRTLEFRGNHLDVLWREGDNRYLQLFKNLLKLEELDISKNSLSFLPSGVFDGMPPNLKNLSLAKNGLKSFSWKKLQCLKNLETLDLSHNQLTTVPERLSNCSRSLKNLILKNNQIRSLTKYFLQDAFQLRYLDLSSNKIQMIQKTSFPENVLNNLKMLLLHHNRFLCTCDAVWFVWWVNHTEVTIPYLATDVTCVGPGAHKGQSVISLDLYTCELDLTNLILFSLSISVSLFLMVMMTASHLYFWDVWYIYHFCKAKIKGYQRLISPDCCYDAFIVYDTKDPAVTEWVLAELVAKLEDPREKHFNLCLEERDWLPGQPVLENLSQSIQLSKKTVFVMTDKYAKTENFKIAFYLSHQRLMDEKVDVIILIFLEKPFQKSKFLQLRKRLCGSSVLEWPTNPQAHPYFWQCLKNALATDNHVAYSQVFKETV
Summary of the method: (§1)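 HEK-Blue cells with NF-κB/AP-1-driven SEAP reporter, pre-treated 30 min at room temperature with compound (0.05 nM-50 μM). Stimulants: gardiquimod 7.5 μM (TLR7), R848 15.9 μM (TLR8) or ODN2006 5 nM (TLR9). SEAP measured after 22 h at 37° C.; percent inhibition versus agonist-plus-DMSO and known-inhibitor wells.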

human TLR9 = molecular target: T2, human TLR9 (Homo sapiens, UniProt Q9NR96); test: TLR9 inhibition reporter assay (HEK-Blue cells, SEAP reporter, ODN2006 stimulation); conditions: HEK-Blue cells overexpressing human TLR9, SEAP reporter, ODN2006 5 nM
T2 construct: host or cells: HEK-Blue cells
T2 sequence (Q9NR96 26-1032): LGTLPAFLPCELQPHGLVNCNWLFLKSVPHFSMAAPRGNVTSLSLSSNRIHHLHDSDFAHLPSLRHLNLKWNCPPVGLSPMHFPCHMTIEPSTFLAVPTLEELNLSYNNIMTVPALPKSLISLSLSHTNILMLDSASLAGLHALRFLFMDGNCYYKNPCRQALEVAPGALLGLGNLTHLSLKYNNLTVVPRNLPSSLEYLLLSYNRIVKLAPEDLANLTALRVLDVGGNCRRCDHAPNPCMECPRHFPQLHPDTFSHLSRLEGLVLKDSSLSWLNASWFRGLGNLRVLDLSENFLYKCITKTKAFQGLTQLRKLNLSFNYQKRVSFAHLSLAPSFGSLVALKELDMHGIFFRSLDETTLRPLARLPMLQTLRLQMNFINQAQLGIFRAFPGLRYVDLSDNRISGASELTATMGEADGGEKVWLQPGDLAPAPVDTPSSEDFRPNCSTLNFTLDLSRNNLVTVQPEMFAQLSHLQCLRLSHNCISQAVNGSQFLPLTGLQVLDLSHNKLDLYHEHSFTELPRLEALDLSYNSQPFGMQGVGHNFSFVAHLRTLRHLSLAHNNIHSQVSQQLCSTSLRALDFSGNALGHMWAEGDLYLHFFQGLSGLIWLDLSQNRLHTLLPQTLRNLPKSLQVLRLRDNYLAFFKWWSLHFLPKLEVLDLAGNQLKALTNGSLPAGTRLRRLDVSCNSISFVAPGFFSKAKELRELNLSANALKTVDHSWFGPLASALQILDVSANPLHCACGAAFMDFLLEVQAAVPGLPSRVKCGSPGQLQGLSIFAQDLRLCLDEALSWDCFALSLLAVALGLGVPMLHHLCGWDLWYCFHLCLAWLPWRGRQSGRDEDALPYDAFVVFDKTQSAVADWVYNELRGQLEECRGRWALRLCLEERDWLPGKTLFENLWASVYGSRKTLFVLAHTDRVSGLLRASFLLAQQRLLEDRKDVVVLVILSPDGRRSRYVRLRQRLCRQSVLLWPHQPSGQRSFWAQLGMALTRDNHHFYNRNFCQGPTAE
Summary of the method: as §1

human TLR8 = molecular target: T3, human TLR8 (Homo sapiens, UniProt Q9NR97); test: TLR8 inhibition reporter assay (HEK-Blue cells, SEAP reporter, R848 stimulation); conditions: HEK-Blue cells overexpressing human TLR8, SEAP reporter, R848 15.9 μM
T3 construct: host or cells: HEK-Blue cells
T3 sequence (Q9NR97 27-1041): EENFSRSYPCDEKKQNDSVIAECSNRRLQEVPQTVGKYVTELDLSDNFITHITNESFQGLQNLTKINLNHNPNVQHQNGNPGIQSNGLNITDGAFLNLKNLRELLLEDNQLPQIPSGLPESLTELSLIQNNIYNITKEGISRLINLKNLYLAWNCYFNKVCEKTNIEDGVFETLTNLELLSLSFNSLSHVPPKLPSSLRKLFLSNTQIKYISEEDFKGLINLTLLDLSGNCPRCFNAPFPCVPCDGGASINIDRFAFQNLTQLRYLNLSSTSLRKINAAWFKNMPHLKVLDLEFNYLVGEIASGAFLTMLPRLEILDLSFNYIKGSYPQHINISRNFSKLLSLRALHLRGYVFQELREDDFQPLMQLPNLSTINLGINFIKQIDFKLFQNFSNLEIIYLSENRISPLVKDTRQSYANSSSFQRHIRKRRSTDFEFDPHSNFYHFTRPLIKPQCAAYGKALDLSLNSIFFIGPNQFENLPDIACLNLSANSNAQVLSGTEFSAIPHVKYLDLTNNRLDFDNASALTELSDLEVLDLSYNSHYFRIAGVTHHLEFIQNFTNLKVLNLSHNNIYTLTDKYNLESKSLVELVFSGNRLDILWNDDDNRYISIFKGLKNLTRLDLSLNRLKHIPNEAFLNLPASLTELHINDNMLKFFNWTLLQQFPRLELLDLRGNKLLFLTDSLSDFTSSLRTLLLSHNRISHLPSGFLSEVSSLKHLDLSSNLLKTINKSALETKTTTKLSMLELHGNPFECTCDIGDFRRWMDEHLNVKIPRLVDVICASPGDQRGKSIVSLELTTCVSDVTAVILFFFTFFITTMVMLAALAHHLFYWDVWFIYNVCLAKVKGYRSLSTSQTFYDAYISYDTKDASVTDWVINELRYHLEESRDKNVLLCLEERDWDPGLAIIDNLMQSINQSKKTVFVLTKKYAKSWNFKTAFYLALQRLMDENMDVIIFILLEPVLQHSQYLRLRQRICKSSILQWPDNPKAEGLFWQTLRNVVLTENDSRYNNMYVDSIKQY
Summary of the method: as §1

Compound	IC50 (human TLR7) [nM]	IC50 (human TLR9) [nM]	IC50 (human TLR8) [nM]
CNC(=O)CN1CC(c2ccc3[nH]c(-c4cn5ncnc5c(C)c4C)c(C(C)C)c3c2)OCC1(C)C (stereo not drawn) [Example 388]	37	> 50000	41
Cc1cc(-c2[nH]c3ccc(C4CCC(C(=O)N5CCCCC5)CC4)cc3c2C(C)C)cn2ncnc12 (single isomer, unassigned) [Example 160]	9	30300	154
Cc1cc(-c2[nH]c3ccc(C4CCC(NC(=O)CN(C)C)CC4)cc3c2C(C)C)cc(C)n1 (stereo not drawn) [Example 120]	4	323	21
Cc1cc(-c2[nH]c3ccc(C4CCC(OC5CCNCC5)CC4)cc3c2C(C)C)ccn1 (stereo not drawn) [Example 503]	28	2860	44
Cc1cc(-c2[nH]c3ccc(C4CCC(O)CC4)cc3c2C(C)C)ccn1 (stereo not drawn) [Example 174]	164	> 50000	518
COc1cc(-c2[nH]c3ccc(CCC4CN(C)C4)cc3c2C(C)C)cn2ncnc12 [Example 438]	5	2100	37
CCc1c(-c2ccnc(C)c2)[nH]c2ccc(CNC(=O)CCC3CCNCC3)cc12 [Example 444]	3060	4960	9240
CCN(CC)CC(=O)NC1CCC(c2ccc3[nH]c(-c4cn5ncnc5c(C)c4C)c(C(C)C)c3c2)CC1 (stereo not drawn) [Example 125]	11	6980	10
CC(C)c1c(-c2ccnc3[nH]ncc23)[nH]c2ccc(/C=C/C3CCNCC3)cc12 [Example 422]	13	457	2.1
Cc1cc(-c2[nH]c3ccc(C4CCCN(Cc5c[nH]c(C)n5)C4)cc3c2C(C)C)cc(C)n1 (stereo not drawn) [Example 246]	10	56	16
COc1cc(-c2[nH]c3ccc(C4CCCN(C(C)C)C4)cc3c2C(C)C)cn2ncnc12 (single isomer, unassigned) [Example 239]	2	1370	3
Cc1cc(-c2[nH]c3ccc(C4CN(CC(=O)N(C)C)CCO4)cc3c2C(C)C)cn2ncnc12 (single isomer, unassigned) [Example 316]	9	> 50000	55
Cc1c(-c2[nH]c3ccc(C4CN(CC(=O)N(C)C)C4)cc3c2C(C)C)cn(C)c(=O)c1C [Example 489]	128	14900	20
COc1cc(-c2[nH]c3ccc(CC4CN(C(C)C)C4)cc3c2C(C)C)cn2ncnc12 [Example 433]	2	2190	3
Cc1cc(-c2[nH]c3ccc(C4CCC(NCC(C)(C)O)CC4)cc3c2C(C)C)cn2ncnc12 (stereo not drawn) [Example 104]	3	6410	6.5
Cc1c(-c2[nH]c3ccc(C4CCCN(CC(=O)N(C)C)C4)cc3c2C(C)C)cn2ncnc2c1C (stereo not drawn) [Example 226]	17	9770	7.4

More lines, now with the values ahead:

IC50 (human TLR7) [nM]	IC50 (human TLR9) [nM]	IC50 (human TLR8) [nM]	Compound
0.3	346	0.81	COc1cc(-c2[nH]c3ccc(C4CCC(N5CC(O)C5)CC4)cc3c2C(C)C)cn2ncnc12 (single isomer, unassigned) [Example 20]
0.86	2700	2.7	CNC1CCC(c2ccc3[nH]c(-c4cn5ncnc5c(C)c4C)c(C(C)C)c3c2)CC1 (stereo not drawn) [Example 91]
0.84	1310	2.1	COc1cc(-c2[nH]c3ccc(C4CN(C(C)C)C4)cc3c2C(C)C)cn2ncnc12 [Example 272]
2	1740	3.3	COc1cc(-c2[nH]c3ccc(C4CCC(N5CC6(COC6)C5)CC4)cc3c2C(C)C)cn2ncnc12 (stereo not drawn) [Example 96]
1	6420	2.9	Cc1c(-c2[nH]c3ccc(C4CCCN(C(=O)CN(C)C)C4)cc3c2C(C)C)cn2ncnc2c1C (stereo not drawn) [Example 193]
2	4650	7.5	Cc1cc(-c2[nH]c3ccc(C4CCC(NC5(C)COC5)CC4)cc3c2C(C)C)cn2ncnc12 (single isomer, unassigned) [Example 47]
1	2440	7.7	Cc1cc(-c2[nH]c3ccc(C4CCC(N(C)C(=O)CN(C)C)CC4)cc3c2C(C)C)cn2ncnc12 (stereo not drawn) [Example 148]
0.85	11600	6.8	COc1cc(-c2[nH]c3ccc(C4CCC(NCC(F)F)CC4)cc3c2C(C)C)cn2ncnc12 (single isomer, unassigned) [Example 68]
0.48	1790	1.7	COc1cc(-c2[nH]c3ccc(C4CCC(NC5COC5)CC4)cc3c2C(C)C)cn2ncnc12 (stereo not drawn) [Example 90]
1	2330	27	Cc1c(-c2[nH]c3ccc(C4CC5CN(C(C)C)CC5C4)cc3c2C(C)C)cn2cnnc2c1C (stereo not drawn) [Example 560]
